Active and inactive are the calls of the source.
Molecular target: T1, Prostaglandin G/H synthase 2 (Homo sapiens, UniProt P35354)
T1 sequence (P35354 whole entry): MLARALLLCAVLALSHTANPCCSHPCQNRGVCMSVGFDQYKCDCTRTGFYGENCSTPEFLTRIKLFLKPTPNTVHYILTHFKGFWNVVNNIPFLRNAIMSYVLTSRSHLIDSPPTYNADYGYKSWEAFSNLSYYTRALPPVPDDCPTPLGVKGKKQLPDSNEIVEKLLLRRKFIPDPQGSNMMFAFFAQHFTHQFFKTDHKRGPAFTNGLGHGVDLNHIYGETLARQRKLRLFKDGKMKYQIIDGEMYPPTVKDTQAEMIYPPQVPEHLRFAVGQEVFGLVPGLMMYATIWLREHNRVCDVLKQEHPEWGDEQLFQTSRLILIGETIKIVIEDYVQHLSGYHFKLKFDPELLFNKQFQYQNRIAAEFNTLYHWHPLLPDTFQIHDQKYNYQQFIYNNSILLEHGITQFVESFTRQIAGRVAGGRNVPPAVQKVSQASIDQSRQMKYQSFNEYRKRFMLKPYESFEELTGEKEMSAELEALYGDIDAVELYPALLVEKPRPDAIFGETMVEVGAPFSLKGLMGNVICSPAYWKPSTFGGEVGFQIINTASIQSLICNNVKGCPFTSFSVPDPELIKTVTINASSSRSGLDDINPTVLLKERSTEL
Assay: not given
Type: cell-based, COS
Conditions: not given
Compound `CS(=O)(=O)c1ccc(-c2cc(C(F)(F)F)nc(N)n2)cc1` has an IC50 of 0.272 µM. `CCCCNc1nc(-c2ccc(S(C)(=O)=O)cc2)cc(C(F)(F)F)n1` gave an IC50 of 0.0013 µM. With `CS(=O)(=O)c1ccc(-c2cc(C(F)(F)F)nc(Nc3ccc(F)cc3)n2)cc1` the IC50 was 0.0072 µM.

Molecular target: T2, Prostaglandin G/H synthase 1 (Homo sapiens, UniProt P23219)
T2 sequence (P23219 whole entry): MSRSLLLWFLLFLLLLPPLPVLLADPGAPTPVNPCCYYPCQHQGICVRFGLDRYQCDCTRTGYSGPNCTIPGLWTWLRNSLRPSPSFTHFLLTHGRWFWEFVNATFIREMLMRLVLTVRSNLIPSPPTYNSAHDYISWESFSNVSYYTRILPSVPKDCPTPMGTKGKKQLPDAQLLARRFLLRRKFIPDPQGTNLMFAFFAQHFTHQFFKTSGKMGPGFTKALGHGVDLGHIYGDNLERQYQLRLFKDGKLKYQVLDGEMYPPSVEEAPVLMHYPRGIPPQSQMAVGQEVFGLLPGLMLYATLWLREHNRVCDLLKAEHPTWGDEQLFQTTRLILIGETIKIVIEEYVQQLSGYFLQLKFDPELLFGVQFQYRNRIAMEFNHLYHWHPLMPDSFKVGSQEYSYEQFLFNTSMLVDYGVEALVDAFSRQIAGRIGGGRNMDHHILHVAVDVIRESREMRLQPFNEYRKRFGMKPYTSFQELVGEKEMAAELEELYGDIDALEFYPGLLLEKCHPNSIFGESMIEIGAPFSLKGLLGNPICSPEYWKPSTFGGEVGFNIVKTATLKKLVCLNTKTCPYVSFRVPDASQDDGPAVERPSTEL
Assay: biochemical
Type: cell-based, COS
Conditions: not given
`CS(=O)(=O)c1ccc(-c2cc(C(F)(F)F)nc(NC3CCOCC3)n2)cc1` showed an IC50 of over 91.6 µM. In the case of `CS(=O)(=O)c1ccc(-c2cc(C(F)(F)F)nc(NC3CCCCC3)n2)cc1`, the IC50 is reported as over 58.4 µM. With `CS(=O)(=O)c1ccc(-c2cc(C(F)(F)F)nc(NCc3ccccc3)n2)cc1` the IC50 was over 100 µM. For `CS(=O)(=O)c1ccc(-c2cc(C(F)(F)F)nc(N)n2)cc1`, the IC50 was over 100 µM. With `CCCCNc1nc(-c2ccc(S(C)(=O)=O)cc2)cc(C(F)(F)F)n1` the IC50 was over 100 µM. In the case of `CS(=O)(=O)c1ccc(-c2cc(C(F)(F)F)nc(Nc3ccc(F)cc3)n2)cc1`, the IC50 is reported as over 65.8 µM.

System: COS
Assay: Selectivity ratio of IC50 for human COX1 to IC50 for human COX2 expressed in african green monkey COS cells
Type: cell-based
Conditions: not given
Work on `CS(=O)(=O)c1ccc(-c2cc(C(F)(F)F)nc(NC3CCOCC3)n2)cc1` yielded a Ratio IC50 of over 5090. With `CS(=O)(=O)c1ccc(-c2cc(C(F)(F)F)nc(NC3CCCCC3)n2)cc1` the Ratio IC50 was over 117000. Compound `CS(=O)(=O)c1ccc(-c2cc(C(F)(F)F)nc(NCc3ccccc3)n2)cc1` has a Ratio IC50 of over 400000. In the case of `CS(=O)(=O)c1ccc(-c2cc(C(F)(F)F)nc(N)n2)cc1`, the Ratio IC50 is reported as over 368. With `CCCCNc1nc(-c2ccc(S(C)(=O)=O)cc2)cc(C(F)(F)F)n1` the Ratio IC50 was over 76900. In the case of `CS(=O)(=O)c1ccc(-c2cc(C(F)(F)F)nc(Nc3ccc(F)cc3)n2)cc1`, the Ratio IC50 is reported as over 9140.

Molecular target: T1, Prostaglandin G/H synthase 2
Assay: biochemical
Type: cell-based, Sf9
Conditions: not given
Work on `CS(=O)(=O)c1ccc(-c2cc(C(F)(F)F)nc(OCC3CCCCC3)n2)cc1` yielded an IC50 of 0.045 µM. Compound `CCCCOc1nc(-c2ccc(S(C)(=O)=O)cc2)cc(C(F)(F)F)n1` has an IC50 of 0.0215 µM. `Cc1cccc(Oc2nc(-c3ccc(S(C)(=O)=O)cc3)cc(C(F)(F)F)n2)c1` gave an IC50 of under 0.01 µM. `CC(C)(C)Oc1nc(-c2ccc(S(C)(=O)=O)cc2)cc(C(F)(F)F)n1` gave an IC50 of 0.033 µM. For `CS(=O)(=O)c1ccc(-c2cc(C(F)(F)F)nc(OC3CCCC3)n2)cc1`, the IC50 was under 0.01 µM. `CS(=O)(=O)c1ccc(-c2cc(C(F)(F)F)nc(OC3CCCCCCC3)n2)cc1` showed an IC50 of under 0.01 µM. Work on `CS(=O)(=O)c1ccc(-c2cc(C(F)(F)F)nc(OC3CCCCCC3)n2)cc1` yielded an IC50 of under 0.01 µM. In the case of `CS(=O)(=O)c1ccc(-c2cc(C(F)(F)F)nc(OCC3CCCCCC3)n2)cc1`, the IC50 is reported as 1.03 µM. `CS(=O)(=O)c1ccc(-c2cc(C(F)(F)F)nc(OC3CCC3)n2)cc1` gave an IC50 of under 0.01 µM. Work on `CC(C)Oc1nc(-c2ccc(S(C)(=O)=O)cc2)cc(C(F)(F)F)n1` yielded an IC50 of 0.063 µM.

Molecular target: T2, Prostaglandin G/H synthase 1
Assay: biochemical
Type: cell-based, Sf9
Conditions: not given
Remark: another data set of the same source
Compound `CS(=O)(=O)c1ccc(-c2cc(C(F)(F)F)nc(OCC3CCCCC3)n2)cc1` has an IC50 of over 100 µM. In the case of `Cc1cccc(Oc2nc(-c3ccc(S(C)(=O)=O)cc3)cc(C(F)(F)F)n2)c1`, the IC50 is reported as 4.36 µM. Compound `CC(C)(C)Oc1nc(-c2ccc(S(C)(=O)=O)cc2)cc(C(F)(F)F)n1` has an IC50 of 52 µM. `CS(=O)(=O)c1ccc(-c2cc(C(F)(F)F)nc(OC3CCCC3)n2)cc1` showed an IC50 of 4.04 µM. `CS(=O)(=O)c1ccc(-c2cc(C(F)(F)F)nc(OC3CCCCCCC3)n2)cc1` showed an IC50 of 3 µM. `CS(=O)(=O)c1ccc(-c2cc(C(F)(F)F)nc(OC3CCCCCC3)n2)cc1` gave an IC50 of 1.92 µM. Work on `CS(=O)(=O)c1ccc(-c2cc(C(F)(F)F)nc(OC3CCC3)n2)cc1` yielded an IC50 of 19 µM. Compound `CC(C)Oc1nc(-c2ccc(S(C)(=O)=O)cc2)cc(C(F)(F)F)n1` has an IC50 of 52.6 µM.

System: not listed separately
Assay: Selectivity ratio of IC50 for human COX1 to IC50 for human COX2 expressed in baculovirus-infected SF9 cells
Conditions: not given
`CS(=O)(=O)c1ccc(-c2cc(C(F)(F)F)nc(OCC3CCCCC3)n2)cc1` gave a Ratio IC50 of over 2220. `Cc1cccc(Oc2nc(-c3ccc(S(C)(=O)=O)cc3)cc(C(F)(F)F)n2)c1` gave a Ratio IC50 of over 436. Compound `CC(C)(C)Oc1nc(-c2ccc(S(C)(=O)=O)cc2)cc(C(F)(F)F)n1` has a Ratio IC50 of 1580. For `CS(=O)(=O)c1ccc(-c2cc(C(F)(F)F)nc(OC3CCCC3)n2)cc1`, the Ratio IC50 was over 404. `CS(=O)(=O)c1ccc(-c2cc(C(F)(F)F)nc(OC3CCCCCCC3)n2)cc1` showed a Ratio IC50 of over 300. `CS(=O)(=O)c1ccc(-c2cc(C(F)(F)F)nc(OC3CCCCCC3)n2)cc1` gave a Ratio IC50 of over 192. `Cc1ccc(Oc2nc(-c3ccc(S(C)(=O)=O)cc3)cc(C(F)(F)F)n2)cc1` gave a Ratio IC50 of over 375. For `CS(=O)(=O)c1ccc(-c2cc(C(F)(F)F)nc(OCC3CCCCCC3)n2)cc1`, the “Ratio IC50” value was “inactive”. With `CS(=O)(=O)c1ccc(-c2cc(C(F)(F)F)nc(OC3CCC3)n2)cc1` the Ratio IC50 was over 1900. Compound `CC(C)Oc1nc(-c2ccc(S(C)(=O)=O)cc2)cc(C(F)(F)F)n1` has a Ratio IC50 of 834.

Molecular target: T1, Prostaglandin G/H synthase 2
Assay: not given
Type: tissue-based, Blood
Conditions: not given
Remark: another data set of the same source
Compound `CCCCOc1nc(-c2ccc(S(C)(=O)=O)cc2)cc(C(F)(F)F)n1` has an IC50 of 0.158 µM. `CS(=O)(=O)c1ccc(-c2cc(C(F)(F)F)nc(NC3CCCCC3)n2)cc1` showed an IC50 of 0.062 µM. In the case of `CS(=O)(=O)c1ccc(-c2cc(C(F)(F)F)nc(NCc3ccccc3)n2)cc1`, the IC50 is reported as 0.008 µM. Work on `CCCCNc1nc(-c2ccc(S(C)(=O)=O)cc2)cc(C(F)(F)F)n1` yielded an IC50 of 0.07 µM.

Molecular target: T2, Prostaglandin G/H synthase 1
Assay: not given
Type: tissue-based, Blood
Conditions: not given
With `CS(=O)(=O)c1ccc(-c2cc(C(F)(F)F)nc(NC3CCCCC3)n2)cc1` the IC50 was 11.6 µM. Compound `CS(=O)(=O)c1ccc(-c2cc(C(F)(F)F)nc(NCc3ccccc3)n2)cc1` has an IC50 of 39.3 µM. Compound `Cc1ccc(-c2ncc(Cl)cc2-c2ccc(S(C)(=O)=O)cc2)cn1` [ETORICOXIB] has an IC50 of over 100 µM. Work on `CCCCNc1nc(-c2ccc(S(C)(=O)=O)cc2)cc(C(F)(F)F)n1` yielded an IC50 of over 96.2 µM.

Organism: Homo sapiens
Assay: Selectivity ratio of IC50 for COX1 to IC50 for COX2 in human whole blood
Type: tissue-based
Conditions: not given
With `CS(=O)(=O)c1ccc(-c2cc(C(F)(F)F)nc(NC3CCCCC3)n2)cc1` the Ratio IC50 was 187. Work on `CS(=O)(=O)c1ccc(-c2cc(C(F)(F)F)nc(NCc3ccccc3)n2)cc1` yielded a Ratio IC50 of 4910. Work on `CCCCNc1nc(-c2ccc(S(C)(=O)=O)cc2)cc(C(F)(F)F)n1` yielded a Ratio IC50 of over 1370.

System: not listed separately
Assay: Blood clearance in rat at 1 mg/kg/hr, iv
Type: ADME, organism-based
Set-up: route intravenous
Conditions: whole blood
For `CCCCOc1nc(-c2ccc(S(C)(=O)=O)cc2)cc(C(F)(F)F)n1`, the clearance was 24 mL/min/kg.

System: not listed separately
Assay: Volume of distribution at steady state in rat at 1 mg/kg/hr, iv
Type: ADME, organism-based
Set-up: route intravenous
Conditions: in vivo, read-out: Vdss
With `CCCCOc1nc(-c2ccc(S(C)(=O)=O)cc2)cc(C(F)(F)F)n1` the Vd was 5.7 L/kg.

System: not listed separately
Assay: Oral bioavailability in rat at 1 mg/kg
Type: ADME, organism-based
Conditions: in vivo
Work on `CCCCOc1nc(-c2ccc(S(C)(=O)=O)cc2)cc(C(F)(F)F)n1` yielded a bioavailability of 84%.

System: Rattus norvegicus
Assay: Antihyperalgesic activity against chronic constriction nerve injury-induced hyperalgesia in rat assessed as reversal of decrease in the paw withdrawal threshold at 5 mg/kg, po bid for 10 days measured on day 3 postdose
Type: functional, organism-based
Set-up: dose 5 mg/kg
Conditions: not given
With `CCCCOc1nc(-c2ccc(S(C)(=O)=O)cc2)cc(C(F)(F)F)n1` the Activity was “Active”.

System: Rattus norvegicus
Assay: Antihyperalgesic activity against chronic constriction nerve injury-induced hyperalgesia in rat assessed as reversal of decrease in the paw withdrawal threshold at 5 mg/kg, po bid for 10 days measured on day 7 postdose
Type: functional, organism-based
Set-up: dose 5 mg/kg
Conditions: not given
With `CCCCOc1nc(-c2ccc(S(C)(=O)=O)cc2)cc(C(F)(F)F)n1` the Activity was “Active”.

System: Rattus norvegicus
Assay: Antihyperalgesic activity against chronic constriction nerve injury-induced hyperalgesia in rat assessed as reversal of decrease in the paw withdrawal threshold at 5 mg/kg, po bid for 10 days measured on day 10 postdose
Type: functional, organism-based
Set-up: dose 5 mg/kg
Conditions: not given
With `CCCCOc1nc(-c2ccc(S(C)(=O)=O)cc2)cc(C(F)(F)F)n1` the Activity was “Active”.

Organism: Rattus norvegicus
Assay: Analgesic activity against Freund's adjuvant-induced pain in rat model of acute inflammatory pain assessed as reversal of adjuvant hypersensitivity
Type: functional
Conditions: not given
With `CCCCOc1nc(-c2ccc(S(C)(=O)=O)cc2)cc(C(F)(F)F)n1` the ED50 was 2.1 mg/kg.

System: not listed separately
Assay: Terminal half life in rat at 1 mg/kg/hr, iv
Type: ADME, organism-based
Set-up: route intravenous
Conditions: in vivo, read-out: beta t1/2 (converted)
For `CCCCOc1nc(-c2ccc(S(C)(=O)=O)cc2)cc(C(F)(F)F)n1`, the half-life was 4.2 h.

System: not listed separately
Assay: in vivo
Conditions: rat, brain / blood
Description: Ratio of drug level in brain to blood in rat
With `CCCCOc1nc(-c2ccc(S(C)(=O)=O)cc2)cc(C(F)(F)F)n1` the Kp was 3.2. In the case of `CS(=O)(=O)c1ccc(C2=C(c3ccccc3)C(=O)OC2)cc1` [ROFECOXIB], the Kp is reported as 0.8.
